From PubChem BioAssay AID330 (DTP/NCI, 2004) come the findings set out here.

Where “and” joins values, the source holds several entries; their conditions need not be identical. Equal values may be shown once. Inconclusive results and toxic doses are left out.

The subject of this experiment is P388 leukemia ip, CD2F1 mice, survival T/C. As to the kind of experiment: NCI In Vivo Anticancer Drug Screen. Data for tumor model P388 Leukemia (intraperitoneal) in CD2F1 (CDF1) mice. To be noted: endpoint: median survival time, higher = longer survival. The procedure, abridged: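 Mice carrying the transplanted tumor received test compound or vehicle. Survival was recorded in each group, and the value is the treated-group measurement divided by that of the vehicle-treated control group.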

[1] abbreviates: dose: 50.0 mg/kg/injection, schedule: Q01DX009 (ip), vehicle: saline with Tween-80.
Where [2] appears, read: dose: 100.0 mg/kg/injection, schedule: Q01DX009 (ip), vehicle: saline with Tween-80.
Setting [3] is: dose: 200.0 mg/kg/injection, schedule: Q01DX009 (ip), vehicle: saline with Tween-80.
The mark [4] stands for this setting: dose: 60.0 mg/kg/injection, schedule: Q01DX005 (ip), vehicle: saline with Tween-80.
The mark [5] stands for this setting: dose: 120.0 mg/kg/injection, schedule: Q01DX005 (ip), vehicle: saline with Tween-80.
[6] abbreviates: dose: 240.0 mg/kg/injection, schedule: Q01DX005 (ip), vehicle: saline with Tween-80.
Where [7] appears, read: dose: 100.0 mg/kg/injection, schedule: Q04DX003 (ip), vehicle: saline with Tween-80.
The mark [8] stands for this setting: dose: 200.0 mg/kg/injection, schedule: Q04DX003 (ip), vehicle: saline with Tween-80.
[9] abbreviates: dose: 400.0 mg/kg/injection, schedule: Q01DX009 (ip), vehicle: saline with Tween-80.
[10] abbreviates: dose: 30.0 mg/kg/injection, schedule: Q01DX005 (ip), vehicle: saline with Tween-80.

`COc1cc(C(O)C2C(=O)OCC2C2(c3ccc4c(c3)OCO4)SCCCS2)cc(OC)c1OC` (stereo not given): the T/C runs as follows: under setting [1], 107 % of control; (dose: 100.0 mg/kg/injection, schedule: Q01DX001 (ip), vehicle: saline with Tween-80) 109 % of control; under setting [2], 115 % of control; (dose: 200.0 mg/kg/injection, schedule: Q01DX001 (ip), vehicle: saline with Tween-80) 104 % of control; under setting [3], 108 % of control.
Take `CC(C)Cc1cc(-c2cc(CC(C)C)nc(N)n2)nc(N)n1`: the T/C runs as follows: (dose: 60.0 mg/kg/injection, schedule: Q01DX005 (ip), vehicle: saline) 100 % of control; (dose: 120.0 mg/kg/injection, schedule: Q01DX005 (ip), vehicle: saline) 90 % of control.
For the molecule `CC(=O)Nc1ccc(S(=O)(=O)N/N=c2/sc3ccccc3n2C)cc1`, the T/C runs as follows: under setting [4], 100 % of control; under setting [5], 92 % of control; under setting [6], 95 % of control.
Take `Nc1ccc2nc3ccccc3c(NCCCCCCCCNc3c4ccccc4nc4ccc(N)cc34)c2c1`: the T/C reads like this: (dose: 2.5 mg/kg/injection, schedule: Q01DX009 (ip), vehicle: water) 160 % of control; (dose: 5.0 mg/kg/injection, schedule: Q01DX009 (ip), vehicle: water) 160 % of control.
On to `CN(C)CCCN1CCC2(CCSCC2)C1`, for which the T/C (dose: 50.0 mg/kg/injection, schedule: Q01DX005 (ip), vehicle: saline) is 102 % of control; the T/C (dose: 100.0 mg/kg/injection, schedule: Q01DX005 (ip), vehicle: saline) is 99 % of control; the T/C (dose: 200.0 mg/kg/injection, schedule: Q01DX005 (ip), vehicle: saline) is 91 % of control.
`CCOC(=O)CNC(=O)Sc1ccc(C(C)(C)C)cc1C`: the T/C (dose: 50.0 mg/kg/injection, schedule: Q01DX005 (ip), vehicle: saline + Tween-80 + alcohol) was 100 % of control (2×) and 107 % of control; the T/C (dose: 100.0 mg/kg/injection, schedule: Q01DX005 (ip), vehicle: saline + Tween-80 + alcohol) was 110 % of control and 111 % of control and 118 % of control; the T/C (dose: 200.0 mg/kg/injection, schedule: Q01DX005 (ip), vehicle: saline + Tween-80 + alcohol) is 114 % of control and 120 % of control; the T/C (dose: 400.0 mg/kg/injection, schedule: Q01DX005 (ip), vehicle: saline + Tween-80 + alcohol) is 114 % of control.
With `Brc1cnc2ccccn12`, the T/C under setting [1] is 101 % of control, the T/C under setting [2] was 102 % of control and the T/C under setting [3] is 114 % of control.
With `NC(=O)CC1(C(=O)O)c2ccccc2-c2ccccc21`, the T/C is 97 % of control under setting [7]; 97 % of control under setting [8]; 108 % of control (dose: 400.0 mg/kg/injection, schedule: Q04DX003 (ip), vehicle: saline with Tween-80).
`C[n+]1cccc(/C=N/O)c1`: the T/C was 100 % of control (dose: 100.0 mg/kg/injection, schedule: Q04DX002 (ip), vehicle: saline) and 100 % of control (dose: 200.0 mg/kg/injection, schedule: Q04DX002 (ip), vehicle: saline).
Take `COc1cc(C(c2cc3c(cc2O)OCO3)N2CCN(C(c3cc(OC)c(OC)c(OC)c3)c3cc4c(cc3O)OCO4)CC2)cc(OC)c1OC` (stereo not given): the T/C under setting [4] was 87 % of control, the T/C under setting [5] is 90 % of control and the T/C under setting [6] is 87 % of control.
For `CC(O)C(N=C1N=CNC2=NC=NC12)C(=O)O` (stereo not given), the T/C runs as follows: (dose: 50.0 mg/kg/injection, schedule: Q01DX005 (ip), vehicle: saline with Tween-80) 100 % of control; (dose: 100.0 mg/kg/injection, schedule: Q01DX005 (ip), vehicle: saline with Tween-80) 96 % of control; (dose: 200.0 mg/kg/injection, schedule: Q01DX005 (ip), vehicle: saline with Tween-80) 95 % of control.
As for `CC12CCC(=O)C1C=CC2=O` (stereo not given), the T/C by setting is: (dose: 100.0 mg/kg/injection, schedule: Q04DX003 (ip), vehicle: saline + Tween-80 + alcohol) 100 % of control; (dose: 200.0 mg/kg/injection, schedule: Q04DX003 (ip), vehicle: saline + Tween-80 + alcohol) 112 % of control.
For the molecule `CC(=O)c1c(O)c(C)c(O)c2c1OC1=CC(=O)c3c(C)noc3C12C` (stereo not given), the T/C (dose: 12.5 mg/kg/injection, schedule: Q01DX009 (ip), vehicle: gum acacia) was 102 % of control; the T/C (dose: 25.0 mg/kg/injection, schedule: Q01DX009 (ip), vehicle: gum acacia) was 118 % of control; the T/C (dose: 50.0 mg/kg/injection, schedule: Q01DX009 (ip), vehicle: gum acacia) is 101 % of control and 112 % of control and 113 % of control; the T/C (dose: 100.0 mg/kg/injection, schedule: Q01DX009 (ip), vehicle: gum acacia) is 114 % of control and 118 % of control and 120 % of control; the T/C (dose: 200.0 mg/kg/injection, schedule: Q01DX009 (ip), vehicle: gum acacia) is 104 % of control and 105 % of control.
In the case of `NC(=O)c1nnn2c1nc(N)c1ccccc12`, the T/C runs as follows: under setting [1], 90 % of control; under setting [2], 89 % of control; under setting [3], 91 % of control.
Take `CCCCN(CCCC)CC(O)c1c2cccc(Cl)c2cc2c(Cl)cccc12` (stereo not given): the T/C reads like this: under setting [1], 98 % of control and 99 % of control; under setting [2], 99 % of control and 92 % of control; under setting [3], 90 % of control; under setting [9], 90 % of control.
With `Cc1ccc(-c2nc(N)sc2N=Nc2ccc(Cl)cc2Cl)cc1`, the T/C reads like this: (dose: 60.0 mg/kg/injection, schedule: Q01DX005 (ip), vehicle: Klucel (hydroxypropylcellulose) (HPC)) 96 % of control; (dose: 120.0 mg/kg/injection, schedule: Q01DX005 (ip), vehicle: Klucel (hydroxypropylcellulose) (HPC)) 96 % of control; (dose: 240.0 mg/kg/injection, schedule: Q01DX005 (ip), vehicle: Klucel (hydroxypropylcellulose) (HPC)) 97 % of control.
In the case of `N#CC(NCC1(O)CCCCC1)C(O)c1ccccc1` (stereo not given), the T/C is 94 % of control (dose: 25.0 mg/kg/injection, schedule: Q01DX009 (ip), vehicle: suspension in saline); 108 % of control (dose: 50.0 mg/kg/injection, schedule: Q01DX009 (ip), vehicle: suspension in saline); 109 % of control (dose: 100.0 mg/kg/injection, schedule: Q01DX009 (ip), vehicle: suspension in saline).
For `OO.OO.[Cr+3].[NH-]CC[N-]CC[NH-]`, the T/C was 94 % of control under setting [1] and 99 % of control under setting [2].
`COC(=O)c1cccc(OC)c1OC`: the T/C is 109 % of control under setting [2], 100 % of control under setting [3] and 109 % of control under setting [9].
Regarding `CC1(CO)C2CCC(CC2)C1CO` (stereo not given), the T/C is, setting by setting: under setting [1], 109 % of control; under setting [2], 100 % of control; under setting [3], 104 % of control.
`Brc1nc(Br)c(Br)[nH]1`: the T/C (dose: 50.0 mg/kg/injection, schedule: Q01DX009 (ip), vehicle: saline sonified) is 91 % of control.
Take `CCCC(O)(CCC)/C(C)=N/O`: the T/C was 99 % of control (dose: 12.5 mg/kg/injection, schedule: Q01DX009 (ip), vehicle: saline with Tween-80); 107 % of control (dose: 25.0 mg/kg/injection, schedule: Q01DX009 (ip), vehicle: saline with Tween-80); 87 % of control and 98 % of control under setting [1]; 88 % of control under setting [3].
For `CCOC(=O)C1(C(=O)O)CCCN(C(=O)OCc2ccccc2)C1Cc1ccccc1` (stereo not given), the T/C (dose: 100.0 mg/kg/injection, schedule: Q01DX001 (ip), vehicle: Klucel (hydroxypropylcellulose) (HPC)) is 99 % of control; the T/C (dose: 200.0 mg/kg/injection, schedule: Q01DX001 (ip), vehicle: Klucel (hydroxypropylcellulose) (HPC)) was 102 % of control; the T/C (dose: 400.0 mg/kg/injection, schedule: Q01DX001 (ip), vehicle: Klucel (hydroxypropylcellulose) (HPC)) was 93 % of control.
As to `CCCCOc1ccc2nc(C)cc(N=[N+]=[N-])c2c1`, the T/C is, setting by setting: under setting [10], 94 % of control; under setting [4], 86 % of control and 94 % of control; under setting [5], 97 % of control; under setting [6], 92 % of control.
Take `COc1cccc(C2c3cc4c(cc3OC(C)(N3CCCC3)C2C)OCO4)c1O` (stereo not given): the T/C is, setting by setting: under setting [4], 99 % of control; under setting [5], 102 % of control; under setting [6], 89 % of control.
For the molecule `O=C1OC(=O)C2C1C1c3ccccc3C2(O)c2ccccc21` (stereo not given), the T/C reads like this: under setting [10], 106 % of control; under setting [4], 100 % of control; under setting [5], 94 % of control.
With `CC1(C)COC(Cc2ccccc2)=N1`, the T/C runs as follows: under setting [1], 100 % of control; (dose: 50.0 mg/kg/injection, schedule: Q04DX003 (ip), vehicle: saline with Tween-80) 100 % of control; under setting [2], 104 % of control; under setting [7], 95 % of control; under setting [3], 100 % of control; under setting [8], 100 % of control.
